Values quoted from earlier work in article PMC3902791 (Molecular imaging and biology : MIB : the official …, 2012).
Like-named read-outs stand apart in the source and are kept apart here.

How the values were obtained:
[1] = humans; cited from earlier work
[2] = system: monkey; settings: intravenous injection; cited from earlier work
[3] = system: dog; settings: cited from earlier work

SMILES | effective dose [1] | radiation absorbed dose, intestines [1] | radiation absorbed dose, kidneys [1] | radiation absorbed dose, liver [1] | radiation absorbed dose, pancreas [1] | radiation absorbed dose, urinary bladder [1] | LD50 [2] | LD50 ([3]; intravenously) | LD50 ([3]; orally)
C[11C](=O)O [^11C-ACE, ^11C-labeled acetate] | 0.0049 mSv/MBq | 0.01–0.011 mGy/MBq | 0.0093 mGy/MBq | 0.006 mGy/MBq | 0.017 mGy/MBq | 0.0028 mGy/MBq |  |  | 
O=C([O-])CF.[Na+] [sodium fluoroacetate] |  |  |  |  |  |  | 5 mg/kg | 0.06 mg/kg | 0.066 mg/kg
